Laboratory results: patent US11091476B2, “Protein kinase inhibitors, preparation method and medical use thereof” (Gan & Lee Pharmaceuticals, priority 2015, dated 2021)

Experiments:
[1] = tested on: Human breast cancer cells MDA-MB-231; test: Inhibition of proliferation of human breast cancer cell MDA-MB-231 (DAPI, In Cell Analyzer); assay type: cell-based; conditions: for IC50: Homo sapiens, MDA-MB-231, 72 hours incubation, read-out: IC50, proliferation of human breast cancer cell MDB-MA-231; for Inhibitory activity on proliferation of the MDA-MB-231 cell line, in words: experimental conclusion
Experimental: 200 μl of medium containing 0.2% DMSO (dimethylsulfoxide) was added into B2 to B10 of a 96-well plate; 300 μl of the above solution was added into B1; and • c. 100 μl of solution was taken from well B1, added into B2, and mixed well; then 100 μl of the resulting solution was taken and added into B3, and dilution was carried out in sequence to B9, so as to obtain standard solutions diluted by 3-fold sequentially. • (2) Preparation of Test Compound Solutions • a. […] 200 μl of medium containing 0.2% DMSO (dimethylsulfoxide) was added into H2 to H10 of the 96-well plate; and 300 μl of the above solution was added into H1; and • c. 100 μl of solution was taken from well H1, added into H2, and mixed well; then 100 μl of the resulting solution was taken and added into H3, and dilution was carried out in sequence to […], so as to obtain test compound solutions diluted by 3-fold sequentially.
2.3 Experimental Process: • 2.3.1: MDA-MB-231 cells were inoculated into a 96-well cell plate with black transparent bottom at 4000 cells/100 μl/well, and cultured overnight at 37° C.; • 2.3.2: The above samples were added at 100 μl/well to a culture plate inoculated with cells, gently patted to mix well, and incubated at 37° C. for 72 hours; • 2.3.3: Fixation: the cell plate was taken out, the medium was removed, and 50 μl of 4% paraformaldehyde was added per well to fix for 10 minutes; • 2.3.4: 50 μl of 0.1M glycine was added to neutralize for 10 minutes; • 2.3.5: 1×PBS (phosphate buffer pH 7.2) was used to wash twice; • 2.3.6: Permeabilization: 50 μl of 0.2% TRITON-X®100 (Triton) was added per well, and permeabilization was carried out at room temperature for 10 minutes; • 2.3.7: 1×PBS (Phosphate buffer pH 7.2) was used to wash twice; • 2.3.8: 5 mg/mL DAPI stock solution was diluted at a ratio of 1:5000 (final concentration of 1 μg/ml), and staining was performed at room temperature for 20 minutes; • 2.3.9: 1×PBS (Phosphate buffer pH 7.2) was used to wash three times; and • 2.3.10: Scanning and analysis were performed by an IN cell analyzer 2200.
(§1) The inhibition rate of each compound at each concentration point was calculated by the formula as follows and curve fitting was performed by GraphPad Prism 5 software to obtain the IC50 value.

CDK4/CyclinE1 = CDK4/CyclinE1 (Homo sapiens, UniProt P11802); conditions: read-out: CDK4/CyclinE1 IC50
Experimental: Measurement of CDK kinase inhibitory activity of the compounds of this disclosure.
In vitro inhibitory effect of the compounds of the disclosure on CDK (CDK1, CDK4 and CDK6) kinase activity was tested by the following method.
1.1 Instrument and Kit Information
1.2 Experimental Preparation • 1.2.1 Preparation of Kinase Reaction Buffer I: The 5×Reaction Buffer A (Promega; V307A-C) provided in the kit was mixed and diluted with MILLI-Q® H2O and 0.1 M DTT (dithiothreitol) to give 4× kinase buffer, and then MILLI-Q® H2O was further added to finally formulate the solution into 1× Kinase buffer.
The final concentration was 50 μM. • b. 40 μl of kinase reaction buffer II was added into B2 to B10 of a 96-well plate, and 50 μl of the above solution was added into B1; • c. […]
1.3 Experimental process: • 1.3.1: 2 μl of compound solutions of various concentrations were taken, added to a 384-well plate, and centrifuged 3 minutes; • 1.3.2: 4 μl of kinase solution was added to each well, centrifuged at 5000 rpm and 18° C. for 10 minutes, and shaken on a plate shaker for 10 minutes; • 1.3.3: 4 μl of mixed solution of substrate and ATP was added to each well, centrifuged at 5000 rpm and 18° C. for 10 minutes, and shaken on a plate shaker at 37° C. for 90 minutes; • 1.3.4: The 384-well plate was taken out, and allowed to stand to room temperature; • 1.3.5: 10 μl of ADP-GLO™ reagent was added to each well, centrifuged at 5000 rpm and 18° C. for 18 minutes, and shaken on a plate shaker at 25° C. for 40 minutes, and then the reaction was stopped; • 1.3.6: 20 μl of kinase detection reagent was added to each well, centrifuged at 5000 rpm and 18° C. for 10 minutes, and shaken on a plate shaker at 25° C. for 30 minutes; and • 1.3.7: M1000pro MICROPLATE READER was used to read […] values.
as §1

Sequence of CDK4/CyclinE1 (P11802 2-303 limits assumed): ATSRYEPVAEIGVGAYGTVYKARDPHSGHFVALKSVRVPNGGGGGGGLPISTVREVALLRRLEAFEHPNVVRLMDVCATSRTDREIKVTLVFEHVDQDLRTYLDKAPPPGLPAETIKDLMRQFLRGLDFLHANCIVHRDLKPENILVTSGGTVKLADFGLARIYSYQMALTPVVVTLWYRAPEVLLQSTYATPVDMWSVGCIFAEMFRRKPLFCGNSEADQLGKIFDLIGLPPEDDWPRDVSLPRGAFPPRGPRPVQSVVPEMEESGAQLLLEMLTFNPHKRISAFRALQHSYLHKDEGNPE

SMILES | IC50 [1] [nM] | Inhibitory activity on proliferation of the MDA-MB-231 cell line, in words [1] | IC50 (CDK4/CyclinE1) [nM]
CCN1CCC(c2ccc(Nc3ncc(F)c(-c4cc(F)c5c(c4)C4(CCCC4)C(C)=N5)n3)nc2)CC1 [Example 12, N-(5-(1-ethylpiperidin-4-yl)pyridin-2-yl)-5-fluoro-4-(7′-fluoro-2′-methylspiro [cyclopentane-1,3′-indol]-5′-yl)pyrimidine-2-amino] | 183 | significant inhibitory activity | 4.46
CC1=Nc2c(F)cc(-c3nc(Nc4ccc(C5CCN(C)CC5)cn4)ncc3F)cc2C12CCCC2 [Example 17, 5-Fluoro-4-(7′-fluoro-2′-methylspiro[cyclopentane-1,3′-indol]-5′-yl)-N-(5-(1-methylpiperidin-4-yl)pyridin-2-yl)pyrimidine-2-amino] | 110 | significant inhibitory activity | 2.62
CCN1CCN(Cc2ccc(Nc3ncc(F)c(-c4cc(F)c5nc(C)n(C(C)C)c5c4)n3)nc2)CC1 [LY2835219, reference compound] | 229 |  | 
